The target of assay [1] is T1, MOPr (Homo sapiens, UniProt P35372). In words: [35S]GTPγS binding, CHO membranes, standard DAMGO. It is filed as biochemical. As to conditions: Ke/nM MOPr, antagonist Ke versus DAMGO, single agonist concentration. (In general: GTPγS resists hydrolysis and so accumulates on activated G proteins.)
The target of assay [2] is T2, KOPr (Homo sapiens, UniProt P41145). In words: [35S]GTPγS binding, CHO membranes, standard U69593. The class given is biochemical. The settings on record: for Kd: Ke/nM KOPr, antagonist Ke versus U69593, single agonist concentration; for fold more potent as KOPr antagonist than 17-methyl equivalent: ratio of Ke: 5k vs 5b, 5i vs 5e.
T2 sequence (P41145 whole entry): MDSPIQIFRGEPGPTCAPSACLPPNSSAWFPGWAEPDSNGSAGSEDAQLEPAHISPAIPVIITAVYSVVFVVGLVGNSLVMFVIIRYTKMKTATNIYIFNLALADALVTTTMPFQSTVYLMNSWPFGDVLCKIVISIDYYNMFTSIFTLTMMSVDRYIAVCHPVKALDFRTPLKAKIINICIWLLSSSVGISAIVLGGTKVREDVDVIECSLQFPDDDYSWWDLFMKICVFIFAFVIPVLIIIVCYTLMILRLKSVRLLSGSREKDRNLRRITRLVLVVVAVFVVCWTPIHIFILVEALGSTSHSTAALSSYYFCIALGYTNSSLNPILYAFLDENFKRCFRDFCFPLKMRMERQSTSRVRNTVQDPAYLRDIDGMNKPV
In assay [3] the test system is DOPr. The settings on record: cited from earlier work.
Assay [4] deals with T3, DOPr (Homo sapiens, UniProt P41143). As to the kind of experiment: [35S]GTPγS binding, CHO membranes, standard DPDPE. The class given is biochemical. As to conditions: for Kd: Ke/nM DOPr, antagonist Ke versus DPDPE, single agonist concentration.
T3 sequence (P41143 whole entry): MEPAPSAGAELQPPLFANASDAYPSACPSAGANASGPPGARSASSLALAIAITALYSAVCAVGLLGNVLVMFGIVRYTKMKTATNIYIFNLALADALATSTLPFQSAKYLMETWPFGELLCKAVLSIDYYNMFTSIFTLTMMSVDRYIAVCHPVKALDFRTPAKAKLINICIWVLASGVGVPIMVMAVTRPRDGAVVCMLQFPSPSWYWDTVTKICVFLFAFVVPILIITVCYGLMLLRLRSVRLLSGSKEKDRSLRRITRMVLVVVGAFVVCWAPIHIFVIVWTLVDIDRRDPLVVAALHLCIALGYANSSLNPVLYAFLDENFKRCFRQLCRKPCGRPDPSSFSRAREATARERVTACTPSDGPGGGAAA
Assay [5] deals with T1, MOPr. The class given is binding.
Assay [6] has as its target T2, KOPr. It is filed as binding.
Assay [7] addresses T3, DOPr. It is filed as binding.
The test system of assay [8] is MOPr. As to conditions: read-out: EC50 MOPr partial agonist activity in [35S]GTPγS assay; cited from earlier work.
Assay [9] has as its system MOPr. As to the kind of experiment: Guinea pig ileum. The settings on record: 7b Ke in GPI (ref 8) vs 5k Ke in [35S]GTPγS assay.
Assay [10] concerns the target MOPr. The settings on record: read-out: Ke MOPr antagonist activity in GPI assay; GPI isolated tissue; cited from earlier work.

The text below walks through data of PMC4112151 (Bioorganic & medicinal chemistry, 2014).

By EC50 is commonly meant the concentration at which the effect is half-maximal.

T1 sequence (P35372 whole entry): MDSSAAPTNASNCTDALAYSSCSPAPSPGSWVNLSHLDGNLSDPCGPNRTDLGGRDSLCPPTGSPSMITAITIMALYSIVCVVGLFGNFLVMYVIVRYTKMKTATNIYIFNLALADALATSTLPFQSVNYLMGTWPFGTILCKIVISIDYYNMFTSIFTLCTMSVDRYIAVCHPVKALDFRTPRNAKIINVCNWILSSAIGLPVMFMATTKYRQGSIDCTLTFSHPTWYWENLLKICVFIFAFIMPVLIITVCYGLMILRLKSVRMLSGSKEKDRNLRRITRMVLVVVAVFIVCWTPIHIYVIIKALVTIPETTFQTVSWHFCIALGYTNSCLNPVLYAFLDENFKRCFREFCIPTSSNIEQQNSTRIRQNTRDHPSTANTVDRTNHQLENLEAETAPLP

`O=C1CCC2=C([C@@H]3Oc4c(O)ccc5c4[C@@]34CCN(CC3CC3)[C@H](C5)[C@]4(O)C2)N1CC1CCCCC1` [5n, 1′-Cyclohexylmethyl-17-cyclopropylmethyl-6,7-didehydro-4,5-epoxy-4′,5′-dihydro-3,14-dihydroxy-pyrido[2,3: 6,7-]morphinan-6(1H)-one]: the Kd at MOPr [1] worked out at 0.27 nM; at KOPr [2], 0.48 nM.

Consider `Cc1[nH]c2c(c1Cc1ccccc1)C[C@@]1(O)[C@H]3Cc4ccc(O)c5c4[C@@]1(CCN3CC1CC1)[C@H]2O5` [6b], for which, in the assay with DOPr [3], the “DOPr antagonist selectivity over both MOPr and KOPr” value is 50 fold.

Take `O=C1[C@H](CCO)CC2=C([C@@H]3Oc4c(O)ccc5c4[C@@]34CCN(CC3CC3)[C@H](C5)[C@]4(O)C2)N1Cc1ccccc1` [5i]: the Kd amounted to 0.35 nM at MOPr [1], 0.73 nM at KOPr [2] and 0.47 nM on DOPr [4]. Further, the “fold more potent as KOPr antagonist than 17-methyl equivalent” value on KOPr [2] amounted to 40 fold.

Turning to `CN1CC[C@]23c4c5ccc(O)c4O[C@H]2c2ncccc2C[C@@]3(O)[C@H]1C5` [7a, reference compound], at MOPr [5], the “fold lower MOPr affinity than 5b” value is reported as 27 fold. Moreover, at KOPr [6], the “fold lower KOPr affinity than 5b” value stood at 130 fold. The “fold lower DOPr affinity than 5b” value at DOPr [7] was 20 fold. The EC50 in the assay on MOPr [8] was 3000 nM.

The compound `CN1CC[C@]23c4c5ccc(O)c4O[C@H]2C2=C(C[C@H](CCO)C(=O)N2Cc2ccccc2)C[C@@]3(O)[C@H]1C5` [5f] displayed a Kd at KOPr [2] of 16.8 nM.

Consider `CN1CC[C@]23c4c5ccc(O)c4O[C@H]2C2=C(C[C@@H](CCO)C(=O)N2Cc2ccccc2)C[C@@]3(O)[C@H]1C5` [5e], for which the Kd on MOPr [1] amounted to 32.9 nM; at KOPr [2], 29.3 nM.

Consider `Oc1ccc2c3c1O[C@H]1c4ncccc4C[C@@]4(O)[C@@H](C2)N(CC2CC2)CC[C@]314` [7b], for which the “fold lower MOPr antagonist potency than 5k” value in the assay with MOPr [9] was 800 fold. The Kd on MOPr [10] was 164 nM.

Consider `C[C@@H]1CC2=C([C@@H]3Oc4c(O)ccc5c4[C@@]34CCN(CC3CC3)[C@H](C5)[C@]4(O)C2)N(Cc2ccccc2)C1=O` [5g], for which the Kd on MOPr [1] is 0.5 nM; at KOPr [2], 0.23 nM; on DOPr [4], 0.23 nM.

With `CN1C(=O)CCC2=C1[C@@H]1Oc3c(O)ccc4c3[C@@]13CCN(C)[C@H](C4)[C@]3(O)C2` [5a], the Kd at KOPr [2] amounted to 392 nM.

For `O=C1CCC2=C([C@@H]3Oc4c(O)ccc5c4[C@@]34CCN(CC3CC3)[C@H](C5)[C@]4(O)C2)N1Cc1ccccc1` [5k, 1′-Benzyl-17-cyclopropylmethyl-6,7-didehydro-4,5-epoxy-4′,5′-dihydro-3,14-dihydroxy-pyrido[2,3: 6,7-]morphinan-6(1H)-one], the Kd at MOPr [1] worked out at 0.2 nM; at KOPr [2] it was 0.13 nM. Moreover, the “fold more potent as KOPr antagonist than 17-methyl equivalent” value at KOPr [2] is “over 160 fold”.

On KOPr [2], `CN1C(=O)[C@@H](CCO)CC2=C1[C@@H]1Oc3c(O)ccc4c3[C@@]13CCN(C)[C@H](C4)[C@]3(O)C2` [5d] had a Kd of 2140 nM.

In the case of `CN1C(=O)[C@H](CCO)CC2=C1[C@@H]1Oc3c(O)ccc4c3[C@@]13CCN(C)[C@H](C4)[C@]3(O)C2` [5c], the Kd at KOPr [2] stood at 321 nM.

As to `C[C@H]1CC2=C([C@@H]3Oc4c(O)ccc5c4[C@@]34CCN(CC3CC3)[C@H](C5)[C@]4(O)C2)N(Cc2ccccc2)C1=O` [5h], the Kd turned out to be 0.6 nM on MOPr [1], 2.03 nM on KOPr [2] and 0.57 nM on DOPr [4].

Turning to `O=C1[C@@H](CCO)CC2=C([C@@H]3Oc4c(O)ccc5c4[C@@]34CCN(CC3CC3)[C@H](C5)[C@]4(O)C2)N1Cc1ccccc1` [5j], the Kd at MOPr [1] came to 1.62 nM; on KOPr [2] it was 2.22 nM; at DOPr [4], 0.93 nM.

For `CN1CC[C@]23c4c5ccc(O)c4O[C@H]2C2=C(CCC(=O)N2Cc2ccccc2)C[C@@]3(O)[C@H]1C5` [5b], the “fold lower binding affinity at KOPr than at MOPr” value at KOPr [6] (ratio of Ki, KOPr vs MOPr) is roughly 6 fold. For the same compound, the “fold lower binding affinity at DOPr than at MOPr” value on DOPr [7] (ratio of Ki, DOPr vs MOPr) was “around 3 fold”. At KOPr [2], the Kd is 21.3 nM. Moreover, the “%stim DOPr” value at DOPr [4] (% stimulation relative to the standard DPDPE) is 94%.

For `CCOC(=O)Cc1c2c(n(Cc3ccccc3)c1O)[C@@H]1Oc3c(O)ccc4c3[C@@]13CCN(CC1CC1)[C@H](C4)[C@]3(O)C2` [4b], the Kd at MOPr [1] was 6.61 nM; on KOPr [2] it was 4.3 nM; at DOPr [4], 6.79 nM.
